Laboratory results as given in PMC12486440, “Design, synthesis, and in silico studies of new benzofuran–pyrazole hybrids as multi-kinase inhibitors with potential antiproliferative activity” (RSC Advances, 2025).

Experiments:
HL-60(TB) = settings: single dose 10 μM; leukemia
[1] = system: NCI 60 cancer cell line panel; assay: NCI 60 full panel summary; settings: single dose 10 μM; mean over the NCI 60 panel
CCRF-CEM = settings: single dose 10 μM; leukemia
K-562 = settings: single dose 10 μM; leukemia
MOLT-4 = settings: single dose 10 μM; leukemia
RPMI-8226 = settings: single dose 10 μM; leukemia
SR = settings: single dose 10 μM; leukemia
A549/ATCC = settings: single dose 10 μM; non-small lung carcinoma
EKVX = settings: single dose 10 μM; non-small lung carcinoma
HOP-62 = settings: single dose 10 μM; non-small lung carcinoma
NCI-H226 = settings: single dose 10 μM; non-small lung carcinoma
NCI-H23 = settings: single dose 10 μM; non-small lung carcinoma
NCI-H522 = settings: single dose 10 μM; non-small lung carcinoma
HCT-15 = settings: single dose 10 μM; colon cancer
KM12 = settings: single dose 10 μM; colon cancer
SW-620 = settings: single dose 10 μM; colon cancer
SF-268 = settings: single dose 10 μM; CNS cancer
SF-295 = settings: single dose 10 μM; CNS cancer
SF-539 = settings: single dose 10 μM; CNS cancer
SNB-19 = settings: single dose 10 μM; CNS cancer
SNB-75 = settings: single dose 10 μM; CNS cancer
LOX IMVI = settings: single dose 10 μM; melanoma
MALME-3M = settings: single dose 10 μM; melanoma
SK-MEL-2 = settings: single dose 10 μM; melanoma
SK-MEL-5 = settings: single dose 10 μM; melanoma
UACC-257 = settings: single dose 10 μM; melanoma
OVCAR-5 = settings: single dose 10 μM; ovarian carcinoma
SK-OV-3 = settings: single dose 10 μM; ovarian carcinoma
786–0 = settings: single dose 10 μM; renal carcinoma
A498 = settings: single dose 10 μM; renal carcinoma
CAKI-1 = settings: single dose 10 μM; renal carcinoma
SN12C = settings: single dose 10 μM; renal carcinoma
UO-31 = settings: single dose 10 μM; renal carcinoma
PC-3 = settings: single dose 10 μM; prostate carcinoma
DU-145 = settings: single dose 10 μM; prostate carcinoma
MCF7 = settings: single dose 10 μM; breast carcinoma
BT-549 = settings: single dose 10 μM; breast carcinoma
T-47D = settings: single dose 10 μM; breast carcinoma
MDA-MB-468 = settings: single dose 10 μM; breast carcinoma
HOP-92 = settings: single dose 10 μM; non-small lung carcinoma
HT29 = settings: single dose 10 μM; colon cancer
M14 = settings: single dose 10 μM; melanoma
SK-MEL-28 = settings: single dose 10 μM; melanoma
UACC-62 = settings: single dose 10 μM; melanoma
RXF 393 = settings: single dose 10 μM; renal carcinoma
TK-10 = settings: single dose 10 μM; renal carcinoma

Compound | GI% (HL-60(TB)) [%] | Mean GI% [1] [%] | GI% (CCRF-CEM) [%] | GI% (K-562) [%] | GI% (MOLT-4) [%] | GI% (RPMI-8226) [%] | GI% (SR) [%] | GI% (EKVX) [%] | GI% (NCI-H226) [%] | GI% (NCI-H522) [%] | GI% (HCT-15) [%] | GI% (SF-268) [%] | GI% (SF-295) [%] | GI% (SF-539) [%] | GI% (SNB-19) [%] | GI% (MALME-3M) [%] | GI% (SK-MEL-5) [%] | GI% (UACC-257) [%] | GI% (OVCAR-5) [%] | GI% (786–0) [%] | further results
COc1ccc(C2=NN(C(C)=O)C(c3cn(-c4ccccc4)nc3-c3cc4ccccc4o3)C2)cc1OC (centres unmarked) [4c, 1-(5-(3-(Benzofuran-2-yl)-1-phenyl-1H-pyrazol-4-yl)-3-(3,4-dimethoxyphenyl)-4,5-dihydropyrazol-1-yl)ethanone] | 12.17 | 2.51 | 9.93 | 7.80 | 8.51 | 11.35 | 16.71 | 2.78 | 1.68 | 1.54 | 2.45 | 4.67 | 4.33 | 1.95 | 6.15 | 3.54 | 5.22 | 6.12 | 5.34 | 4.42 | GI% (A549/ATCC): 2.60%; GI% (HOP-62): 3.35%; GI% (NCI-H23): 3.23%; GI% (KM12): 1.20%; GI% (SW-620): 4.67%; GI% (SNB-75): 14.70%; GI% (LOX IMVI): 3.27%; GI% (SK-MEL-2): 1.30%; GI% (SK-OV-3): 7.21%; GI% (A498): 3.05%; GI% (CAKI-1): 13.64%; GI% (SN12C): 10.86%; GI% (UO-31): 11.00%; GI% (PC-3): 3.89%; GI% (DU-145): 1.59%; GI% (MCF7): 8.83%; GI% (BT-549): 3.97%; GI% (T-47D): 5.68%; GI% (MDA-MB-468): 8.49%
CC(=O)N1N=C(c2nc3ccccc3[nH]2)CC1c1cn(-c2ccccc2)nc1-c1cc2ccccc2o1 (centres unmarked) [4d, 1-(5-(3-(Benzofuran-2-yl)-1-phenyl-1H-pyrazol-4-yl)-3-(1H-benzo[d]imidazol-2-yl)-4,5-dihydropyrazol-1-yl)ethanone] | 5.44 | 1.26 | 10.91 | 2.81 | 5.60 | 4.74 | 18.72 | 5.61 | 3.03 | 1.70 | 1.38 | 1.38 | 9.71 | 0.68 | 4.75 | 5.76 | 0.87 | 1.22 | 6.06 | 4.06 | GI% (HOP-92): 8.82%; GI% (HT29): 0.62%; GI% (M14): 2.74%; GI% (SK-MEL-28): 1.16%; GI% (UACC-62): 2.82%; GI% (A498): 5.12%; GI% (CAKI-1): 7.51%; GI% (RXF 393): 2.67%; GI% (SN12C): 6.54%; GI% (TK-10): 15.06%; GI% (UO-31): 13.92%; GI% (PC-3): 5.99%; GI% (MCF7): 5.40%; GI% (BT-549): 9.21%; GI% (T-47D): 18.84%
